Results on six compounds are retold here after ChEMBL document CHEMBL1144985, “Rational design, synthesis and structure-activity relationships of a cyclic succinate series of TNF-alpha converting enzyme inhibitors. Part 2: lead optimization” (Bioorg Med Chem Lett, 2003).

One data set relates to Caco-2. The note with it: Homo sapiens.
In data set [1] the target is Matrix metalloproteinase-9 (Homo sapiens, UniProt P14780). Put plainly: Inhibitory activity against matrix metalloprotease-9 (MMP-9).
For a further data set, the target named is T1, Interstitial collagenase (Homo sapiens, UniProt P03956).
T1 sequence (P03956 whole entry): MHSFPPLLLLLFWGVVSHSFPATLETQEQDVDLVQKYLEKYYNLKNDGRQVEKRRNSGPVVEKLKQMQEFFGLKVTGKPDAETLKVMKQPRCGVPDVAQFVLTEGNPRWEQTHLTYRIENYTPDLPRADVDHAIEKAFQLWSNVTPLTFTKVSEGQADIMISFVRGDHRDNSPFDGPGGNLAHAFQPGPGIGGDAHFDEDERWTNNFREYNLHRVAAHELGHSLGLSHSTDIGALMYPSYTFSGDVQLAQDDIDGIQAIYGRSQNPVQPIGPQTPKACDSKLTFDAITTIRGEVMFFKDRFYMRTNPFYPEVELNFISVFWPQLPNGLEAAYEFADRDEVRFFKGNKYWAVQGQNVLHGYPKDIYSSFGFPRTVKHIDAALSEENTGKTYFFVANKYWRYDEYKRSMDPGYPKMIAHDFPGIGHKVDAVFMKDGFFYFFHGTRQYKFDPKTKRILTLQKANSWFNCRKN
Put plainly: Inhibitory activity against matrix metalloprotease-1 (MMP-1).

Data set [2] deals with 72 kDa type IV collagenase (Homo sapiens, UniProt P08253). Kind of data set: Inhibitory activity against matrix metalloprotease-2 (MMP-2).
Data set [3] concerns the target Disintegrin and metalloproteinase domain-containing protein 17 (Sus scrofa, UniProt O77636). Kind of data set: In vitro binding affinity against porcine TACE.
A further data set is filed under the species Homo sapiens. Put plainly: In vitro inhibition of TNF-alpha production was determined by using LPS-stimulated human whole blood assay (WBA). The data set is classed as functional.
Data set [4] can be described thus: Solubility was determined.

The structures appear in SMILES notation. ≈ marks a conversion by molar mass, not a printed value.

Disintegrin and metalloproteinase domain-containing protein 17, sequence (O77636 whole entry, the tested form may be a part): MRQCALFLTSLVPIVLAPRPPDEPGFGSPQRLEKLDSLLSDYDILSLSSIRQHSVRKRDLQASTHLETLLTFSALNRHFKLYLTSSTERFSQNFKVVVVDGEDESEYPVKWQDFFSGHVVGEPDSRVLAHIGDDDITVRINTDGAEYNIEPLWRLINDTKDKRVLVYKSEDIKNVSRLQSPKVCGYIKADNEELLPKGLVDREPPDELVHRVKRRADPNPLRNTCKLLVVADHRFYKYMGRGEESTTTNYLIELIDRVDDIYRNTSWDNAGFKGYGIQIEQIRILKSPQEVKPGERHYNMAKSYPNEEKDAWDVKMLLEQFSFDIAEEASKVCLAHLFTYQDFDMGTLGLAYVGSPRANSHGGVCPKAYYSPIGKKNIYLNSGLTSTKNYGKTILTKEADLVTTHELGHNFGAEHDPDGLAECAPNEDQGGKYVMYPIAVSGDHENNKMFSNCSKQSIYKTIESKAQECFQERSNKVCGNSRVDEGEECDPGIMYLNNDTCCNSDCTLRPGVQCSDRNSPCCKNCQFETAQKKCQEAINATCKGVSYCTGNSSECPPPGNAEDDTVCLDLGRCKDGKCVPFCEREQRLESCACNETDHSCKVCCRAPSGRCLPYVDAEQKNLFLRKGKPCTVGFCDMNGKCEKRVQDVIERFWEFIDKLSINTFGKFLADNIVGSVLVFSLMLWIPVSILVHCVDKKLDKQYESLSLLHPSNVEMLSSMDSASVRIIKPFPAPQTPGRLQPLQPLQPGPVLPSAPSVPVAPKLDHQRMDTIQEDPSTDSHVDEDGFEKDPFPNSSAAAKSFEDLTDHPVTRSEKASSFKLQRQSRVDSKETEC
72 kDa type IV collagenase, sequence (P08253 whole entry, the tested form may be a part): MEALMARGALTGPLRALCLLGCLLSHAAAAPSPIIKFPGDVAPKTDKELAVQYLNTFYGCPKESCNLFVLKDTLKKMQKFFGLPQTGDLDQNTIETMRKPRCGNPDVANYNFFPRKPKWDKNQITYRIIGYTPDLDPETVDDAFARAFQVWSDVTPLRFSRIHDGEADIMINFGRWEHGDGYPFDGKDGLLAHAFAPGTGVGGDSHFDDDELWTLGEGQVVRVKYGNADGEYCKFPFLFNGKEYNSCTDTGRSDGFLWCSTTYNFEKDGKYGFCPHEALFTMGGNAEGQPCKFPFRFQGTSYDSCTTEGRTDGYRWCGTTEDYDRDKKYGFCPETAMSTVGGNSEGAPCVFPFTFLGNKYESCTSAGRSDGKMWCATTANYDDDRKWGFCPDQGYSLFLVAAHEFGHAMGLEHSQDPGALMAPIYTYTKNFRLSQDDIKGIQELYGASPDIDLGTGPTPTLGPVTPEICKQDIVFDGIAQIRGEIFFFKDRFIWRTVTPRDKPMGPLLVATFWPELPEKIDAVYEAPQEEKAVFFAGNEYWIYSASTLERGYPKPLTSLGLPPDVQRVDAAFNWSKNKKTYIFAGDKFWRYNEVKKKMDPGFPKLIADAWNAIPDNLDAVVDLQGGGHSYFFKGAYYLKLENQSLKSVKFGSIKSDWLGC
Matrix metalloproteinase-9, sequence (P14780 whole entry): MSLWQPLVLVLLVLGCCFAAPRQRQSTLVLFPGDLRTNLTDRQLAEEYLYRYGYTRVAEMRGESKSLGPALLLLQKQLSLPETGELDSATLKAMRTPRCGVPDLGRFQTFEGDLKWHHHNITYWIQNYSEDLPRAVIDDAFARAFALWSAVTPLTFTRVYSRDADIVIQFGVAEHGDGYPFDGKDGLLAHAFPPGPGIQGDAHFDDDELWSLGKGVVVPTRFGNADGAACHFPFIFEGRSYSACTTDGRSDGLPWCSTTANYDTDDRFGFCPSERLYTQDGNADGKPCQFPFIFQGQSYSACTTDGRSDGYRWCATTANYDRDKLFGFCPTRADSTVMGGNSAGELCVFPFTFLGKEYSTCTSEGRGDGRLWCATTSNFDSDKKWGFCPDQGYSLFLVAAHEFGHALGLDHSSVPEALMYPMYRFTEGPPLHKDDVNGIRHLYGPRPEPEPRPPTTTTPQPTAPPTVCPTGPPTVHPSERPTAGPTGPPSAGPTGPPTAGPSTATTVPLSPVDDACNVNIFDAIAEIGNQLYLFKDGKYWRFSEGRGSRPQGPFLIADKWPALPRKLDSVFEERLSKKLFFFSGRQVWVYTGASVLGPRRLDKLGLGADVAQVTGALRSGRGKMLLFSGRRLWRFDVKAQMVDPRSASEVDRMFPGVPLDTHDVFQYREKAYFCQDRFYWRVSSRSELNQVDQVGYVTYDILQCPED
Description for Caco-2: Caco-2 permeability was determined

In the case of `Cc1cc(COc2ccc(NC(=O)[C@H]3CCN(C(=O)C(C)C)C[C@@H]3C(=O)NO)cc2)c2ccccc2n1`, in the data set on Caco-2, the Papp was 0.3 10e-6 cm s-1. Besides, the Ki in data set [1] was more than 2130 nM; on Interstitial collagenase, more than 4950 nM; in data set [2] it was more than 3330 nM. Also, the figures for the IC50 (in data set [3]; in the data set filed under Homo sapiens) were 0.22 nM and 270 nM, respectively. In data set [4], this compound showed a solubility of 30 µg/mL (≈ 59.5 µM).
Turning to `Cc1cc(COc2ccc(NC(=O)[C@H]3CCN(C(=O)c4ccco4)C[C@@H]3C(=O)NO)cc2)c2ccccc2n1`, the Papp in the data set with Caco-2 is 0.1 10e-6 cm s-1. Further, the Ki in data set [1] was more than 465 nM; on Interstitial collagenase, more than 4950 nM; in data set [2], more than 1010 nM. Also, the values for the IC50 (in data set [3]; in the data set listed under Homo sapiens) were 0.066 nM and 170 nM, respectively. In data set [4], the solubility amounted to 10 µg/mL (≈ 18.9 µM).
For `Cc1cc(COc2ccc(NC(=O)[C@H]3CN(CC4CC4)CC[C@@H]3C(=O)NO)cc2)c2ccccc2n1`, the Ki in data set [1] is more than 2130 nM; at Interstitial collagenase, more than 4950 nM; in data set [2] it was more than 3330 nM. The IC50 in data set [3] was 1 nM; in the data set filed under Homo sapiens, 300 nM. Besides, the solubility in data set [4] was more than 10000 µg/mL.
Turning to `Cc1cc(COc2ccc(NC(=O)[C@H]3CN(C(=O)c4ccco4)CC[C@@H]3C(=O)NO)cc2)c2ccccc2n1`, in the data set with Caco-2, the Papp is 0.2 10e-6 cm s-1. Also, the Ki in data set [1] was more than 2130 nM; on Interstitial collagenase, more than 4950 nM; in data set [2], more than 3330 nM. Also, the IC50 in data set [3] is less than 0.3 nM; in the data set listed under Homo sapiens, 1300 nM. For the same compound, in data set [4], the solubility is less than 100 µg/mL.
Consider `CCN1CCC[C@H](C(=O)NO)[C@H]1C(=O)Nc1ccc(OCc2cc(C)nc3ccccc23)cc1`, for which the values for the Ki (in data set [1]; on Interstitial collagenase; in data set [2]) were more than 2130 nM, more than 4950 nM and more than 3330 nM, respectively. The IC50 was determined as 8 nM in data set [3] and 100 nM in the data set listed under Homo sapiens. The same compound gave a solubility in data set [4] of more than 10000 µg/mL.
With `Cc1cc(COc2ccc(NC(=O)[C@H]3CCN(C(=O)C4CC4)C[C@@H]3C(=O)NO)cc2)c2ccccc2n1`, in the data set with Caco-2, the Papp was 0.2 10e-6 cm s-1. For the same compound, the values for the Ki (in data set [1]; at Interstitial collagenase; in data set [2]) were more than 1660 nM, more than 4950 nM and more than 2450 nM, respectively. Also, the IC50 in data set [3] was found to be 0.45 nM; in the data set listed under Homo sapiens it was 390 nM. The solubility in data set [4] stood at 50 µg/mL (≈ 99.5 µM).

As usually defined, the Papp is the rate of passage across a membrane or cell layer, normalised by area and donor concentration. As a reminder, the Ki is the dissociation constant of the complex between target and ligand, obtained from inhibition or displacement. By IC50 is commonly meant the concentration at which inhibition is half-maximal. Higher therefore signals lower potency. As usually defined, the solubility is the concentration that dissolves in the medium under given conditions. Read a low solubility as a poorly soluble substance.
